In ChEMBL document CHEMBL5727994, “Heterocyclic glutaminase inhibitors” (2020) one finds IC50 data, which are given here for 13 compounds.

This assay is described as follows: Modified Recombinant Enzyme Assay: Glutaminase reaction buffer was prepared [50 mM Tris-HCl pH 8.8, 150 mM K2HPO4, […] EDTA, 0.1 mg/ml BSA (Calbiochem no. 2960), 1 mM DTT, 2 mM NADP+(Sigma Aldrich no. N5755), and 0.01% TX-100] and used to make 3×-enzyme-containing solution, 3×-substrate-containing solution, and 3×-inhibitor-containing solution (see below) Inhibitor-containing solution was made.
One may read the IC50 as the concentration that gives 50% inhibition. Consider `COc1ccc(OC(F)(F)F)cc1CC(=O)Nc1ccc(CCCCc2nnc(NC(=O)Cc3ccccn3)s2)nn1`, for which the IC50 stood at 34 nM.
Consider `CC(C)(C)OC(=O)Nc1cccc(CC(=O)Nc2nnc(CCCCc3ccc(NC(=O)Cc4cccc(OC(F)(F)F)c4)nn3)s2)n1`, for which the IC50 turned out to be 140 nM.
With `Nc1cccc(CC(=O)Nc2nnc(CCCCc3ccc(NC(=O)Cc4cccc(OC(F)(F)F)c4)nn3)s2)n1`, the IC50 was 50 nM.
On to `O=C(Cc1ccccn1)Nc1nnc(CCCCc2ccc(NC(=O)C(O)c3ccccc3)nn2)s1` (stereo not drawn), for which the half-maximal inhibitory concentration (IC50) was found to be 190 nM.
As to `O=C(Cc1cc(O)cc(OC(F)(F)F)c1)Nc1ccc(CCCCc2nnc(NC(=O)Cc3ccccn3)s2)nn1`, the IC50 was found to be 13 nM.
Consider `COc1cc(CC(=O)Nc2ccc(CCCCc3nnc(NC(=O)Cc4ccccn4)s3)nn2)cc(OC(F)(F)F)c1`, for which the IC50 amounted to 16 nM.
As to `Cc1cccc(CC(=O)Nc2nnc(CCCCc3ccc(NC(=O)Cc4cccc(OC(F)(F)F)c4)nn3)s2)n1`, the IC50 worked out at 12 nM.
`O=C(Cc1cc(OC(F)(F)F)ccc1O)Nc1ccc(CCCCc2nnc(NC(=O)Cc3ccccn3)s2)nn1`: the half-inhibitory concentration (IC50) turned out to be 26 nM.
Take `COc1ccc(CC(=O)Nc2ccc(CCCCc3nnc(NC(=O)Cc4ccccn4)s3)nn2)cc1OC(F)(F)F`: the IC50 amounted to 24 nM.
For `O=C(Cc1cc(OC(F)(F)F)ccc1F)Nc1ccc(CCCCc2nnc(NC(=O)Cc3ccccn3)s2)nn1`, the half-inhibitory concentration (IC50) was found to be 20 nM.
Take `O=C(Cc1ccc(F)c(OC(F)(F)F)c1)Nc1ccc(CCCCc2nnc(NC(=O)Cc3ccccn3)s2)nn1`: the half-inhibitory concentration (IC50) was found to be 33 nM.
`O=C(Cc1ccc(O)c(OC(F)(F)F)c1)Nc1ccc(CCCCc2nnc(NC(=O)Cc3ccccn3)s2)nn1`: the IC50 was determined as 42 nM.
Take `O=C(Cc1ccc(Cl)c(OC(F)(F)F)c1)Nc1ccc(CCCCc2nnc(NC(=O)Cc3ccccn3)s2)nn1`: the IC50 is 16 nM.
